The values below come from US5998366A, “Method for ameliorating glutamic acid decarboxylase associated autoimmune disorders” (The Regents of the University of California, priority 1997, dated 1999).

For assay [1], the system named is spleen cells of treated female NOD mice. Description: Proliferative splenic T-cell responses to antigens after tolerance induction. It counts as in vivo. The note with it: Table 8A: i.v. at 3 weeks, tested at 12 weeks.
For assay [2] the test system is unchanged. The description is as above. It counts as in vivo. The method, then: NOD (Taconic farms) and BALB/c mice (Jackson Laboratories) were kept under specific pathogen free conditions. The mice were sacrificed at the ages indicated and the spleen cells were tested directly ex vivo for their proliferative recall response to antigen. Single cell suspensions of spleen cells were plated at 1×10^6 cells per well in 96 well microtiter plates in 200 μl serum free HL-1 medium (Ventrex) that was supplemented with 2 mM glutamine with or without 10 μg/ml antigen (or 7 μM peptide) in triplicate cultures. During the last 16 h of the 72 h culture period, 1 μCi[^3 H]-thymidine was added per well. Incorporation of label was measured by liquid scintillation counting.
1. In these experiments female NOD mice were intravenously injected at 3 weeks of age with 50 μg GAD, μ-galactosidase, mycobacterial hsp65 (m-hsp) or 0.1 μg of the immunodominant hsp peptide (hsp-p), in PBS. At 12 weeks of age, mice were examined for insulitis and autoantigen reactive T-cells. At this age both indications are established in untreated NOD mice. Pancreatic tissue sections were stained by immunoperoxidase techniques for insulin and were counterstained with hematoxylin. Insulitis was scored in a blinded manner by examining 54 to 87 islets on 5 interrupted tissue sections from each pancreas. […] Data in Table 8 are expressed as the average [^3 H]-thymidine label (cpm) incorporated in triplicate cultures. […]

Assay [3] concerns spleen cells of 6-9 week old NOD mice. Description: IFNγ ELISA and ELISA spot of spleen cells challenged with antigen. It counts as cell-based. The method, then:
In one series of experiments γ interferon (IFNγ) was measured by ELISA in culture supernatants (CSN) of spleen cells of 6-9 week old mice after challenge with GAD or control antigens HEL and MBP. Additionally, the frequency of antigen specific, IFNγ-producing cells was determined by an ELISA spot technique (T. Taguchi, et al., J. Immunol., 145:68-77, 1990). Frequency of antigen-induced, spot forming cells (SFC) among 10^3 spleen cells is represented in FIG. 9(a). Values are the mean+SEM from 5 individual female NOD mice, each tested in triplicate cultures with or without antigen. Results from a single experiment are shown. These are representative of 3 separate experiments.
In performing these experiments, freshly isolated spleen cells were cultured with or without antigen as described in Example 4. CSN were taken after 48 h and the concentration of IFNγ was determined by ELISA (Macy, et al., FASEB J., 3003-3009, 1988). IFNγ specific monoclonal antibody (mAb) R4-6A2 (Pharmingen) was used as the capturing reagent and biotinylated mAb XMG 1.2 (Pharmingen, also specific for IFNγ) was used in conjunction with streptavidin-alkaline phosphatase (Zymed) and […] for detection of bound lymphokine. […] Spots were counted visually and the frequency of antigen specific cells was determined from the difference between the number of spots seen with and without antigen.
For orientation: An ELISA detects its analyte on a solid surface through an enzyme-linked reagent.

The next assay deals with female NOD mice. Description: GAD immunization of 8 week old NOD mice, onset of IDDM. It is filed as in vivo. The source says: An IPTG inducible T7 expression vector was used to express both human GAD65 and E. coli b galactosidase (β-gal). In IPTG induced recombinant E. coli, GAD and β-gal constitute about 10-20% of the total bacterial protein. However, almost all of the GAD was in inclusion bodies, which could be isolated and extensively washed to obtain material that is about 80% GAD. We then did affinity purifications of GAD and β-gal on the basis of a hexa-histidine "tag" which was attached to GAD during the subcloning process. These extra histidine residues allow the rapid affinity purification (Novagen) of GAD by metal affinity chromatography (Hochuli, et al., Bio Technology, 6:1321-1325, 1988). The inclusion body material is solubilized in 6M guanidine hydrochloride (GHCL), 10 mm β-mercaptoethanol and 1% triton X-100. After binding to the column, the column was extensively washed with GHCL and 8M urea in phosphate buffers. Only the central peak GAD fraction was utilized for subsequent studies. Human GAD65 shares 96% amino acid sequence identity with murine GAD65, with most of the amino acid differences being conservative substitutions.
Breeder mice were purchased from Taconic Farms and housed under specific pathogen-free conditions. Only female NOD mice were used in this study. The average age of IDDM onset in unrelated females in the colony was 22 weeks. Insulitis is generally observed beginning at 4 weeks of age. T cell responses to GAD, HSP, CPH were found by 6 weeks in age. The incidence of IDDM in female mice is 70-90% by one year of age.
At 8 weeks of age, 25 ug GAD or control β-gal. was injected intraperftoneally (ip) in 100 ul of incomplete Freunds adjuvant (IFA). Because there may be a requirement for continual antigen presentation (Ramsdell, et al., Science, 257:1130-1133, 1992) mice were treated again every 6 weeks. Urine glucose levels were monitored twice weekly. After observing above normal glucose in urea, blood glucose levels were monitored twice weekly. Two consecutive blood glucose level readings of […] was considered as IDDM onset, after which the mice were sacrificed and spleen cells were tested as described above in Example 6 for evidence of spleen cell proliferation.

Take “GAD: human GAD65 purified from recombinant bacteria on the basis of a hexahistidine tag”: the “Spleen Cell Proliferation (SI ± SEM) CPH” value in assay [1] (recall antigen CPH) stood at 1.1 ± 0.02 SI. In addition, the “Spleen Cell Proliferation (SI ± SEM) GAD” value in assay [1] (recall antigen GAD) worked out at 1.6 ± 0.3 SI. Further, the “Spleen Cell Proliferation (SI ± SEM) GAD Peptides #17” value in assay [1] (recall antigen GAD peptide #17) amounted to 1.0 ± 0.05 SI. In assay [1] (recall antigen GAD peptide #34), the “Spleen Cell Proliferation (SI ± SEM) GAD Peptides #34” value is 1.2 ± 0.1 SI. For the same substance, the “Spleen Cell Proliferation (SI ± SEM) GAD Peptides #35” value in assay [1] (recall antigen GAD peptide #35) is reported as 1.0 ± 0.1 SI. In assay [1] (recall antigen hsp peptide), the “Spleen Cell Proliferation (SI ± SEM) hsp Peptide” value is 1.2 ± 0.1 SI. The “Spleen Cell Proliferation (SI ± SEM) β-Gal” value in assay [1] (recall antigen β-Gal) was 1.1 ± 0.03 SI. Moreover, in assay [2] (i.v. at 3 weeks, tested at 12 weeks), the “share of treated mice with no T-cell reactivity to GAD (complete tolerization) or to other βCAs” value is “Seventy five percent”. For the same substance, the “weak residual GAD reactivity of the mice not completely tolerized” value in assay [2] (twenty five percent of the GAD-treated mice) is on record as “about 3 SI”. The “IFNγ in culture supernatants after antigen challenge” value in assay [3] (48 h, ELISA) is listed as “high concentrations of IFNγ”. In addition, the “frequency of antigen-reactive (IFNγ spot forming) T-cells in the spleen” value in assay [3] (ELISA spot) was 90-291 cells per 10^5 cells. For the same substance, in the assay on female NOD mice (25 ug ip in IFA at 8 weeks, again every 6 weeks), the “age until which 8 of the immunized mice showed no signs of hyperglycemia” value came out at 36 weeks. Besides, the “treated mice remaining disease free at 52 weeks of age” value with female NOD mice (25 ug ip in IFA at 8 weeks, again every 6 weeks, 10 mice per group) was “Four”. Further, the “significance of the delay or prevention of diabetes” value with female NOD mice (versus β-gal immunized mice) is recorded as under 0.02.
